The target in assay [1] is T1, Human adrenergic α2A receptor (Homo sapiens, UniProt P08913).
T1 sequence (P08913 1-465): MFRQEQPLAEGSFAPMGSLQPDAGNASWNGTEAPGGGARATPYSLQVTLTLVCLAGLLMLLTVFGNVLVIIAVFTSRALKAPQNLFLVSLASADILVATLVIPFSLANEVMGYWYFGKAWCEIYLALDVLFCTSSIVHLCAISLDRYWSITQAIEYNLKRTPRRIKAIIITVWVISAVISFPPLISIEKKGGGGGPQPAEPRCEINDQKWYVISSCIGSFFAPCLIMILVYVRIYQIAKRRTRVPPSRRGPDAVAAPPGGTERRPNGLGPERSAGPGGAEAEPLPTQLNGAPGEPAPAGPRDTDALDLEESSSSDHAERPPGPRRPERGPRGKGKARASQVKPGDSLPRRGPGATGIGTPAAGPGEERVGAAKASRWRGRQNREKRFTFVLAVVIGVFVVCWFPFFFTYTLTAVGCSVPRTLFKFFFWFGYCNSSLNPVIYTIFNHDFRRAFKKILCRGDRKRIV
Nature of the assay: β-Arrestin GPCR functional assay, adrenergic α2A (Protocol B). The class given is cell-based. The note with it: for pIC50: β-arrestin, antagonist vs nor-epinephrine EC80. The protocol:
(§1) To evaluate the activity of compounds in β-Arrestin GPCR functional assays, recombinant CHO cell line (DiscoveRX), over expressed with human adrenergic α2A receptor were used. The experiment was done with kit of DiscoveRX as per recommended protocol of the supplier. Cells were harvested from culture flask using cell dissociation solution (CDS) and plated at a density of 12,000 cells/well in CP reagent (supplied with the kit) in a half area 96-well white polystyrene plate. After 24 h incubation at 37° C., compounds at various concentrations in 1% (final) DMSO were charged to the cells for 30 min at 37° C. Active nor-epinephrine (-NE) at its EC80 concentrations (270 nM) were then added to the cells and incubated for another 90 min at 37° C. Detection mix was prepared by mixing of Path Hunter cell assay buffer, Emerald II solution and Galactone star solution in a ratio of 19:5:1 and incubated with the cells for 60 min at RT in the dark. The reading was taken in Envision at luminescence mode. Biochemical assay results are presented as the percent Inhibition in Table B2a, or IC50 values in Table B2b.

In assay [2] the target is T2, Human adrenergic α1B receptor (Homo sapiens, UniProt P35368).
T2 sequence (P35368 1-520): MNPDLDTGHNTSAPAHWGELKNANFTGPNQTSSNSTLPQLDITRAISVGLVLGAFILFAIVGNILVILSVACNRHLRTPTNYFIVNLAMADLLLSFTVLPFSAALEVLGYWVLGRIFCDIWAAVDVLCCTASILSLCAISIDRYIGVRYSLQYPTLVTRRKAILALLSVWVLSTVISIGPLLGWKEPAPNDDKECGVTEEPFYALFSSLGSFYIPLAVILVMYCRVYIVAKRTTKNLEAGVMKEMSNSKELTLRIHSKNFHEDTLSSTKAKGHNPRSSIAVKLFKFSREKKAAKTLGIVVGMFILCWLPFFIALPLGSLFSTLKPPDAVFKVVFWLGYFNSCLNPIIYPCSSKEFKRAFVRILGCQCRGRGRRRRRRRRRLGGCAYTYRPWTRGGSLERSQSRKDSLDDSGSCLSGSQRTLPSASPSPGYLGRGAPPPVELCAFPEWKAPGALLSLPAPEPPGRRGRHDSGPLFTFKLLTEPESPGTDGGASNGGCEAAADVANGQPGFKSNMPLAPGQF
The assay can be described thus: Radioligand binding, adrenergic α1B (Protocol Group B). On the set-up: purchased Milipore (Millipore). The conditions noted are these: Protocol Group B; for pKi: estimated Ki; for inhibition at 0.1 µM / Percentage inhibition of ligand binding, Adrenergic α1B (0.1 μM): 0.1 μM compound; for inhibition at 0.1 µM: read-out: Percentage inhibition of ligand binding, Adrenergic α1B (0.1 μM); for inhibition at 0.3 µM / Percentage inhibition of ligand binding, Adrenergic α1B (0.3 μM): 0.3 μM compound; for inhibition at 0.3 µM: read-out: Percentage inhibition of ligand binding, Adrenergic α1B (0.3 μM). The procedure, abridged: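 Values are percent inhibition of specific [3H]prazosin (0.3 nM) binding or estimated Ki, from filtration counting. Human α1B recombinant membranes, Tris-HCl pH 7.4 buffer with MgCl2 and EDTA, 60 min at 25 °C, 1% DMSO vehicle; 10 μM prazosin defined nonspecific binding.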

In assay [3] the target is T2, Human adrenergic α1B receptor. The assay can be described thus: β-Arrestin GPCR functional assay, adrenergic α1B (Protocol B). Type of assay: cell-based. The conditions noted are these: for pIC50: β-arrestin, antagonist vs nor-epinephrine EC80. The protocol:
as §1, with “human adrenergic α1B receptor were” for “human adrenergic α2A receptor were”, “done with a kit of” for “done with kit of”, “EC80 concentrations (50 nM) were” for “EC80 concentrations (270 nM) were”, “by mixing Path Hunter” for “by mixing of Path Hunter”

The target in assay [4] is T1, Human adrenergic α2A receptor. Nature of the assay: Radioligand binding, adrenergic α2A (Protocol Group B). On the set-up: purchased Milipore (Millipore). The conditions noted are these: Protocol Group B; for pKi: estimated Ki; for Percentage inhibition of ligand binding, Adrenergic α2A (0.3 μM) / inhibition at 0.3 µM: 0.3 μM compound; for Percentage inhibition of ligand binding, Adrenergic α2A (0.1 μM) / inhibition at 0.1 µM: 0.1 μM compound; for inhibition at 0.1 µM: read-out: Percentage inhibition of ligand binding, Adrenergic α2A (0.1 μM); for inhibition at 0.3 µM: read-out: Percentage inhibition of ligand binding, Adrenergic α2A (0.3 μM). Summed up:
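Compounds (1% DMSO vehicle, various concentrations) competed against 2 nM [^3H]MK-912 on recombinant receptor membranes for 60 min at 25° C, Tris-HCl pH 7.4 buffer with Mg2+, Ca2+, BSA. Bound radioligand filtered and counted; 10 μM rauwolscine set nonspecific binding. Values: percent inhibition of specific binding or estimated Ki.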

Setting [5] is: 0.3 μM compound, nor-epinephrine at EC80 (50 nM), read-out: Percentage inhibition, Adrenergic α1B.
Setting [6] is: 0.1 μM compound, nor-epinephrine at EC80 (270 nM).
The mark [7] stands for this setting: 0.3 μM compound, nor-epinephrine at EC80 (270 nM).
The mark [8] stands for this setting: 0.1 μM compound, nor-epinephrine at EC80 (50 nM).
Where [9] appears, read: 0.3 μM compound, nor-epinephrine at EC80 (50 nM).

Each structure is given as a SMILES string. pIC50, pKi: −log10 of the molar value.

Consider ten molecules from patent US20150315188A1, “COMPOUNDS AND METHODS FOR TREATMENT OF HYPERTENSION” (MEDIVATION TECHNOLOGIES, INC., priority 2012, published 2015).

In general, pIC50 refers to the IC50 on a negative log10 scale, so that one unit is a factor of ten. A lower pIC50 goes with a large IC50. For orientation: pKi means −log10 of the Ki, conventionally taken in molar units. `Cc1ccc2c(c1)c1c(n2CC(OC(=O)N2CCCC2)c2ccncc2)CCN(C)C1` (single isomer, unassigned) [4b]: the pIC50 in assay [1] is 5.22; in assay [3], 6.18. Moreover, the negative-log Ki (pKi) in assay [2] was 6.57; in assay [4] it was 6.90.
On the same counts, the results for `Cc1ccc2c(c1)c1c(n2CC(C)(O)c2ccc(F)nc2)CCN2CCCC12` (single isomer, unassigned) [6a] are 5.75, 6.92, 7.60 and 7.26.
What is called inhibition is the change of the read-out against control, counted positive when it falls. As for `Cc1ccc2c(c1)c1c(n2CC(C)(O)c2ccncc2)CCN2CCCC12` (single isomer, unassigned) [13a], the inhibition at 0.1 µM was determined as 14% in assay [1] (0.1 μM compound, nor-epinephrine at EC80 (270 nM), read-out: Percentage inhibition, Adrenergic α2A) and 49% in assay [3] (0.1 μM compound, nor-epinephrine at EC80 (50 nM), read-out: Percentage inhibition, Adrenergic α1B). Moreover, the inhibition at 0.3 µM stood at 21% in assay [1] (0.3 μM compound, nor-epinephrine at EC80 (270 nM), read-out: Percentage inhibition, Adrenergic α2A) and 74% in assay [3] (setting [5]). Also, the pIC50 in assay [1] was 5.65; in assay [3] it was 7.00. In addition, the values for the pKi in assay [2] and in assay [4] were 8.00 and 7.30, respectively.
`Cc1ccc2c(c1)c1c(n2CC(C)(O)c2ccncc2)CCN2CCCC12` (single isomer, unassigned) [13b]: the “Percentage inhibition, Adrenergic α2A” value in assay [1] (setting [6]) stood at 23%; in assay [1] (setting [7]), 30%. Further, the negative logarithm of the IC50 (pIC50) in assay [1] is 6.09; in assay [3] it was 6.82. In addition, the negative-log Ki (pKi) in assay [2] is 7.46; in assay [4], 7.89. The “Percentage inhibition, Adrenergic α1B” value in assay [3] (setting [8]) is 32%; in assay [3] (setting [9]), 61%.
Consider `Cc1ccc2c(c1)c1c(n2CC(O)c2ccncc2F)CCN2CCCC12` (single isomer, unassigned) [14a], for which the “Percentage inhibition, Adrenergic α2A” value in assay [1] (setting [6]) is −1%. Besides, the “Percentage inhibition, Adrenergic α2A” value in assay [1] (setting [7]) is on record as −2%. In assay [2], the inhibition at 0.1 µM came out at 70%, the inhibition at 0.3 µM worked out at 87% and the pKi was 7.74. In addition, the “Percentage inhibition, Adrenergic α1B” value in assay [3] (setting [8]) turned out to be 49%. In addition, the inhibition at 0.3 µM in assay [3] (setting [5]) worked out at 76%. The molecule also showed a pIC50 in assay [3] of 7.00. Moreover, in assay [4], the “Percentage inhibition of ligand binding, Adrenergic α2A (0.3 μM)” value was determined as 39% and the pKi was 6.52.
In the case of `Cc1ccc2c(c1)c1c(n2CC(O)c2ccncc2F)CCN2CCCC12` (single isomer, unassigned) [14b], the “Percentage inhibition, Adrenergic α2A” value in assay [1] (setting [6]) was determined as 13%. The “Percentage inhibition, Adrenergic α2A” value in assay [1] (setting [7]) stood at 44%. The same molecule showed a negative logarithm of the IC50 (pIC50) in assay [1] of 6.37. Besides, in assay [2], the “Percentage inhibition of ligand binding, Adrenergic α1B (0.1 μM)” value was determined as 85%; the “Percentage inhibition of ligand binding, Adrenergic α1B (0.3 μM)” value was 95%; the pKi is 8.35. Besides, the “Percentage inhibition, Adrenergic α1B” value in assay [3] (setting [8]) is on record as 76%. Further, in assay [3] (setting [9]), the “Percentage inhibition, Adrenergic α1B” value turned out to be 86%. Besides, the pIC50 in assay [3] is 7.60. In assay [4], the “Percentage inhibition of ligand binding, Adrenergic α2A (0.1 μM)” value is 80%; the “Percentage inhibition of ligand binding, Adrenergic α2A (0.3 μM)” value is given as 89%; the negative logarithm of the Ki (pKi) is 8.17.
Turning to `Cc1cc(F)c2c(c1)c1c(n2CC(C)(O)c2cccnc2)CCN2CCCC12` (single isomer, unassigned) [79b], the negative-log IC50 (pIC50) in assay [1] is 5.57. Also, in assay [2], the inhibition at 0.1 µM was determined as 28% and the inhibition at 0.3 µM came out at 57%. For the same molecule, in assay [4], the inhibition at 0.1 µM was found to be 55%, the inhibition at 0.3 µM stood at 74% and the pKi is 7.32.
The molecule `Cc1cc(F)cc2c3c(n(CC(O)c4ccncc4)c12)CCN1CCCC31` (single isomer, unassigned) [136a] gave a pIC50 in assay [1] of 6.05. Besides, in assay [2], the inhibition at 0.1 µM is 31%, the inhibition at 0.3 µM was found to be 70% and the negative logarithm of the Ki (pKi) was 7.83. Further, in assay [4], the “Percentage inhibition of ligand binding, Adrenergic α2A (0.1 μM)” value was determined as 69%; the inhibition at 0.3 µM was determined as 87%; the pKi is 7.84.
In the case of `Cc1ccc2c(c1)c1c(n2CC(O)c2ccncc2)CCN2CCCC12` (single isomer, unassigned) [Compound No. 178d], in assay [2], the “Percentage inhibition of ligand binding, Adrenergic α1B (0.1 μM)” value was determined as 99% and the inhibition at 0.1 µM was determined as 94%. For the same molecule, in assay [4], the “Percentage inhibition of ligand binding, Adrenergic α2A (0.1 μM)” value was determined as 96% and the inhibition at 0.1 µM worked out at 90%.
In the case of `Cc1cc(F)c2c(c1)c1c(n2CC(C)(O)c2cccnc2)CCN2CCCC12` (stereo not shown) [Compound No. 79a], the pIC50 in assay [1] is 6.17. Besides, in assay [2], the “Percentage inhibition of ligand binding, Adrenergic α1B (0.1 μM)” value was found to be 47%; the “Percentage inhibition of ligand binding, Adrenergic α1B (0.3 μM)” value is on record as 79%; the pKi was 7.37. Moreover, in assay [4], the “Percentage inhibition of ligand binding, Adrenergic α2A (0.1 μM)” value is 81%; the “Percentage inhibition of ligand binding, Adrenergic α2A (0.3 μM)” value was found to be 93%; the negative-log Ki (pKi) was 7.97.
